Experimental data reported in patent US20210254056A1, “IDENTIFICATION AND TARGETED MODULATION OF GENE SIGNALING NETWORKS” (CAMP4 THERAPEUTICS CORPORATION, priority 2017, published 2021).

System: hepatocytes
Assay: RNA-seq of hepatocytes treated with Phase III failure compounds
Conditions: hepatocytes
Protocol: RNA-seq was performed to determine the effects of the compounds on hepatocytes.
Significance was determined by the criteria of FPKM≥0.5, a log 2(fold-change)≥1, and a […].

With COc1nc(C)cnc1NS(=O)(=O)c1cccnc1-c1ccc(-c2nnco2)cc1 [Zibotentan] the “Number (#) of genes having significantly changed expression” value (RNA-seq, Phase III failure compounds, significance: FPKM≥0.5, log 2(fold-change)≥1, q-value≥0.05 (so in the source)) was 505, the “significant modulation of expression of disease genes” value (RNA-seq, q≤0.05, genes in the value or listed in the block) was “significantly (q≤0.05) modulate expression” and the “B2M expression, RNA-seq result” value (gene B2M) was −0.49. For the same compound, the “B9D2 expression, RNA-seq result” value (gene B9D2) was −0.43, the “BAAT expression, RNA-seq result” value (gene BAAT) was 0.17 and the “BBOX1 expression, RNA-seq result” value (gene BBOX1) was −0.45. For the same compound, the “BBS10 expression, RNA-seq result” value (gene BBS10) was 0.26, the “BCHE expression, RNA-seq result” value (gene BCHE) was 0.02 and the “BCKDHB expression, RNA-seq result” value (gene BCKDHB) was −0.16. The “BCKDK expression, RNA-seq result” value (gene BCKDK) was −0.21, the “BCO1 expression, RNA-seq result” value (gene BCO1) was −0.38 and the “BCR expression, RNA-seq result” value (gene BCR) was 0.14. The “BLNK expression, RNA-seq result” value (gene BLNK) was 0.09, the “BLOC1S3 expression, RNA-seq result” value (gene BLOC1S3) was 0.15 and the “BMPR1A expression, RNA-seq result” value (gene BMPR1A) was 0.51. For the same compound, the “BRAF expression, RNA-seq result” value (gene BRAF) was 0.82, the “BSCL2 expression, RNA-seq result” value (gene BSCL2) was −3.20 and the “BTD expression, RNA-seq result” value (gene BTD) was 0.19. For the same compound, the “C4A expression, RNA-seq result” value (gene C4A) was 0.20, the “C9 expression, RNA-seq result” value (gene C9) was −0.13 and the “C10orf10 expression, RNA-seq result” value (gene C10orf10) was −0.49. For the same compound, the “C10orf11 expression, RNA-seq result” value (gene C10orf11) was −0.62, the “C15orf41 expression, RNA-seq result” value (gene C15orf41) was 0.50 and the “CA2 expression, RNA-seq result” value (gene CA2) was −0.44. For the same compound, the “CA5A expression, RNA-seq result” value (gene CA5A) was 0.23, the “CA12 expression, RNA-seq result” value (gene CA12) was 0.06 and the “CAV1 expression, RNA-seq result” value (gene CAV1) was 0.15. For the same compound, the “CCND1 expression, RNA-seq result” value (gene CCND1) was 0.25, the “CD46 expression, RNA-seq result” value (gene CD46) was 0.05 and the “CD81 expression, RNA-seq result” value (gene CD81) was −0.76. The “CD320 expression, RNA-seq result” value (gene CD320) was −0.95, the “CDAN1 expression, RNA-seq result” value (gene CDAN1) was 0.10 and the “CDH1 expression, RNA-seq result” value (gene CDH1) was 0.50. For the same compound, the “CEP19 expression, RNA-seq result” value (gene CEP19) was −0.43, the “CEP83 expression, RNA-seq result” value (gene CEP83) was 0.33 and the “CEP164 expression, RNA-seq result” value (gene CEP164) was 0.05. The “CEP290 expression, RNA-seq result” value (gene CEP290) was 0.01, the “CFB expression, RNA-seq result” value (gene CFB) was −0.28 and the “CFHR2 expression, RNA-seq result” value (gene CFHR2) was −0.93. For the same compound, the “CHRM3 expression, RNA-seq result” value (gene CHRM3) was 0.20, the “CIDEC expression, RNA-seq result” value (gene CIDEC) was −0.40 and the “CLDN1 expression, RNA-seq result” value (gene CLDN1) was 0.16. For the same compound, the “COG1 expression, RNA-seq result” value (gene COG1) was 0.25.
